Here are results for 29 compounds from ChEMBL document CHEMBL3627615, “Discovery of the disubstituted oxazole analogues as a novel class anti-tuberculotic agents against MDR- and XDR-MTB” (Bioorg Med Chem Lett, 2015).

Values after ≈ are worked out from the molar mass of the structure shown.

The subject of one experiment is HEK293. The experiment in a line: Cytotoxicity against human HEK293 cells after 36 hrs by MTT assay. Type of experiment: cell-based. To be noted: HEK293, 36 h. Background: Tetrazolium dyes change colour on reduction, which living cells bring about.
The subject of experiment [1] is Mycobacterium tuberculosis. The experiment in a line: Antimycobacterial activity against Mycobacterium tuberculosis H37Rv ATCC 27294 after 5 days by microplate alamar blue assay. Type of experiment: functional. To be noted: H37Rv ATCC 27294, 120 h. On the technique in general: Alamar Blue is a resazurin reagent that responds to reducing activity.
In another experiment the test system is Pseudomonas aeruginosa. Kind of experiment: Antibacterial activity against Pseudomonas aeruginosa by agar dilution method. The format is functional.
A further experiment concerns Klebsiella pneumoniae. The experiment in a line: Antibacterial activity against Klebsiella pneumoniae by agar dilution method. Type of experiment: functional. A general note: Agar dilution tests growth on a series of plates holding different concentrations.
Another experiment deals with Escherichia coli. The experiment in a line: Antibacterial activity against Escherichia coli by agar dilution method. Type of experiment: functional.
The test system of another experiment is Proteus mirabilis. Kind of experiment: Antibacterial activity against Proteus mirabilis by agar dilution method. Type of experiment: functional.
A further experiment concerns Proteus vulgaris. The experiment in a line: Antibacterial activity against Proteus vulgaris by agar dilution method. The format is functional.
For experiment [2], the system named is Acinetobacter calcoaceticus. Kind of experiment: Antibacterial activity against Acinetobacter calcoaceticus by agar dilution method. Type of experiment: functional.
A further experiment has as its system Staphylococcus aureus. The experiment in a line: Antibacterial activity against Staphylococcus aureus by agar dilution method. The format is functional.
For another experiment, the system named is Serratia marcescens. Kind of experiment: Antibacterial activity against Serratia marcescens by agar dilution method. Type of experiment: functional.

For `COc1ccc(C(=O)C2CCN(Cc3coc(-c4ccc(F)cc4)n3)CC2)cc1OC`, the 50% inhibitory concentration (IC50) (as a rule, the concentration needed to halve the response being measured) in the experiment with HEK293 was > 150 µg/mL. Moreover, the MIC90 (commonly the lowest concentration that inhibits either 90% of growth or 90% of the strains tested, depending on the study) in experiment [1] was found to be 8 µg/mL (≈ 18.8 µM).

As to `O=C(c1ccc2c(c1)OCCO2)C1CCN(Cc2coc(-c3ccc(F)cc3)n2)CC1`, the IC50 with HEK293 was > 150 µg/mL. In addition, in experiment [1], the MIC90 was 8 µg/mL (≈ 18.9 µM).

Consider `O=C(c1ccc2c(c1)OCCO2)C1CCN(Cc2coc(-c3ccc(Cl)cc3)n2)CC1`, for which the MIC80 (with Pseudomonas aeruginosa; against Klebsiella pneumoniae; in the experiment with Escherichia coli; with Proteus mirabilis; with Proteus vulgaris; in experiment [2]) was > 128 µg/mL in each case. Besides, the MIC80 against Staphylococcus aureus and in the experiment on Serratia marcescens was > 128 µg/mL in each case. For the same compound, in the experiment on HEK293, the half-maximal inhibitory concentration (IC50) was > 150 µg/mL. Further, the MIC90 in experiment [1] turned out to be 2 µg/mL (≈ 4.56 µM).

On to `O=C(c1ccc2c(c1)OCCO2)C1CCN(Cc2coc(-c3ccc(Br)cc3)n2)CC1`, for which the IC50 in the experiment on HEK293 was > 150 µg/mL. In experiment [1], this compound had an MIC90 of 8 µg/mL (≈ 16.6 µM).

Take `O=C(c1ccc2c(c1)OCCO2)C1CCN(Cc2coc(-c3ccccc3)n2)CC1`: in the experiment with HEK293, the IC50 was > 150 µg/mL. This compound gave an MIC90 in experiment [1] of 4 µg/mL (≈ 9.89 µM).

For the compound `O=C(c1ccc2c(c1)OCCO2)C1CCN(Cc2coc(-c3ccc(C(F)(F)F)cc3)n2)CC1`, the IC50 with HEK293 is > 150 µg/mL. Also, in [1], the MIC90 worked out at 32 µg/mL (≈ 67.7 µM).

In the case of `O=C(c1ccc2c(c1)OCCO2)C1CCN(Cc2coc(-c3ccc(F)c(F)c3)n2)CC1`, the concentration for half-maximal inhibition (IC50) with HEK293 is > 150 µg/mL. For the same compound, the MIC90 in experiment [1] amounted to 8 µg/mL (≈ 18.2 µM).

As to `O=C(c1ccc2c(c1)OCCO2)C1CCN(Cc2coc(-c3ccccc3F)n2)CC1`, the half-inhibitory concentration (IC50) in the experiment on HEK293 is > 150 µg/mL. In experiment [1], this compound returned an MIC90 of 8 µg/mL (≈ 18.9 µM).

Consider `O=C(c1ccc2c(c1)OCCO2)C1CCN(Cc2coc(-c3cccc(F)c3)n2)CC1`, for which the concentration for half-maximal inhibition (IC50) with HEK293 is > 150 µg/mL. The same compound had an MIC90 in [1] of 4 µg/mL (≈ 9.47 µM).

For `COc1ccc(-c2nc(CN3CCC(C(=O)c4ccc5c(c4)OCCO5)CC3)co2)cc1`, the 50% inhibitory concentration (IC50) in the experiment on HEK293 is > 150 µg/mL. The same compound came in with an MIC90 in [1] of 8 µg/mL (≈ 18.4 µM).

Consider `Cc1ccc(-c2nc(CN3CCC(C(=O)c4ccc5c(c4)OCCO5)CC3)co2)cc1`, for which the half-maximal inhibitory concentration (IC50) in the experiment with HEK293 is > 150 µg/mL. Further, the MIC90 in experiment [1] came to 64 µg/mL (≈ 153 µM).

In the case of `CC(C)(C)c1ccc(-c2nc(CN3CCC(C(=O)c4ccc5c(c4)OCCO5)CC3)co2)cc1`, the MIC80 (in the experiment on Pseudomonas aeruginosa; against Klebsiella pneumoniae; in the experiment with Escherichia coli; in the experiment with Proteus mirabilis; with Proteus vulgaris; in experiment [2]) was > 128 µg/mL in each case. The MIC80 in the experiment on Staphylococcus aureus and against Serratia marcescens was > 128 µg/mL each time. Besides, the 50% inhibitory concentration (IC50) in the experiment with HEK293 was > 150 µg/mL. Also, the MIC90 in experiment [1] amounted to 8 µg/mL (≈ 17.4 µM).

Turning to `O=C(c1ccc2c(c1)OCCO2)C1CCN(Cc2coc(-c3cccnc3)n2)CC1`, in the experiment on HEK293, the IC50 was > 150 µg/mL. For the same compound, in [1], the MIC90 was determined as 32 µg/mL (≈ 78.9 µM).

As for `O=C(c1ccc2c(c1)OCCO2)C1CCN(Cc2coc(-c3ccco3)n2)CC1`, in the experiment on HEK293, the IC50 was > 150 µg/mL. For the same compound, the MIC90 in experiment [1] came out at 16 µg/mL (≈ 40.6 µM).

On to `O=C(c1ccc2c(c1)OCCO2)C1CCN(Cc2coc(-c3ccoc3)n2)CC1`, for which, in the experiment with HEK293, the IC50 is > 150 µg/mL. Besides, the MIC90 in experiment [1] was determined as 32 µg/mL (≈ 81.1 µM).

Turning to `O=C(c1ccc2c(c1)OCCO2)C1CCN(Cc2csc(-c3ccc(Cl)cc3)n2)CC1`, the MIC90 in experiment [1] was > 128 µg/mL.

For `CC(C)(C)c1ccc(-c2nc(CN3CCC(C(=O)c4ccc5c(c4)OCCO5)CC3)cs2)cc1`, the MIC90 in [1] is > 128 µg/mL.

Consider `O=C(c1ccc2c(c1)OCCO2)C1CCN(Cc2cc(-c3ccc(F)cc3)on2)CC1`, for which, in experiment [1], the MIC90 is > 128 µg/mL.

With `O=C(c1ccc2c(c1)CCCC2)C1CCN(Cc2coc(-c3ccc(F)cc3)n2)CC1`, the MIC80 (with Pseudomonas aeruginosa; against Klebsiella pneumoniae; in the experiment on Escherichia coli; with Proteus mirabilis; against Proteus vulgaris; in experiment [2]) was > 128 µg/mL each time. The MIC80 in the experiment on Staphylococcus aureus and with Serratia marcescens was > 128 µg/mL throughout. Besides, in the experiment on HEK293, the half-inhibitory concentration (IC50) is > 150 µg/mL. In experiment [1], this compound displayed an MIC90 of 1 µg/mL (≈ 2.39 µM).

For `O=C(c1ccc(F)c(F)c1)C1CCN(Cc2coc(-c3ccc(F)cc3)n2)CC1`, the IC50 in the experiment on HEK293 was > 150 µg/mL. The compound also showed an MIC90 in experiment [1] of 2 µg/mL (≈ 5 µM).

Regarding `O=C(c1ccccc1)C1CCN(Cc2coc(-c3ccc(F)cc3)n2)CC1`, the IC50 with HEK293 was > 150 µg/mL. In [1], this compound came in with an MIC90 of 2 µg/mL (≈ 5.49 µM).

As to `Cc1ccc(C(=O)C2CCN(Cc3coc(-c4ccc(F)cc4)n3)CC2)cc1C`, the IC50 with HEK293 is > 150 µg/mL. In addition, the MIC90 in experiment [1] turned out to be 8 µg/mL (≈ 20.4 µM).

In the case of `Cc1ccc(C(=O)C2CCN(Cc3coc(-c4ccc(F)cc4)n3)CC2)cc1`, the IC50 in the experiment on HEK293 is > 150 µg/mL. The compound further came in with an MIC90 in experiment [1] of 4 µg/mL (≈ 10.6 µM).

Take `COc1ccc(C(=O)C2CCN(Cc3coc(-c4ccc(F)cc4)n3)CC2)cc1`: the concentration for half-maximal inhibition (IC50) in the experiment with HEK293 is > 150 µg/mL. Besides, the MIC90 in experiment [1] worked out at 4 µg/mL (≈ 10.1 µM).

For `CC(C)(C)c1ccc(-c2nc(CN3CCC(C(=O)c4ccc5c(c4)CCCC5)CC3)co2)cc1`, the IC50 with HEK293 is > 150 µg/mL. This compound had an MIC90 in [1] of 8 µg/mL (≈ 17.5 µM).

For the compound `CC[C@@H](CO)NCCN[C@@H](CC)CO` [ETHAMBUTOL], the MIC90 in experiment [1] is < 0.5 µg/mL.

Consider `NNC(=O)c1ccncc1` [ISONIAZID], for which, in experiment [1], the MIC90 is < 0.5 µg/mL.

Turning to `CO[C@H]1/C=C/O[C@@]2(C)Oc3c(C)c(O)c4c(O)c(c(/C=N/N5CCN(C)CC5)c(O)c4c3C2=O)NC(=O)/C(C)=C\C=C\[C@H](C)[C@H](O)[C@@H](C)[C@@H](O)[C@@H](C)[C@H](OC(C)=O)[C@@H]1C` [RIFAMPIN], the MIC90 in [1] was < 0.5 µg/mL.

In the case of `CN[C@@H]1[C@H](O[C@H]2[C@H](O[C@H]3[C@H](O)[C@@H](O)[C@H](N=C(N)N)[C@@H](O)[C@@H]3N=C(N)N)O[C@@H](C)[C@]2(O)C=O)O[C@@H](CO)[C@H](O)[C@H]1O` [STREPTOMYCIN], the MIC90 in experiment [1] was < 0.5 µg/mL.
